Reference: US20250121067A1, “WATER-SOLUBLE CANNABINOID PRODRUGS COMPOSITIONS AND METHODS OF SYNTHESIZING THE SAME” (Trait Biosciences, Inc., priority 2022, published 2025)

What was measured:
[1] = intrinsic aqueous solubility; Int. J. Pharmaceutics 2020, 589, 119812; cited from earlier work
physchem = details: aqueous medium, thermodynamic from solid, room temperature
Procedure: The thermodynamic aqueous solubility of CBD and CBG glycine conjugates in salt forms was determined using the equilibrium shake method outlined in the United States Pharmacopeia (USP) General Chapter <1236>Solubility Measurements (Table 1).

[2] = Solubility (mg/mL) CBD/CBG equivalent, expressed as CBD/CBG equivalent
[3] = Solubility (mg/mL) Salt derivative, expressed as salt derivative

Structure (SMILES): C=C(C)[C@@H]1CCC(C)=C[C@H]1c1c(O)cc(CCCCC)cc1O [CBD, cannabidiol]
- solubility of CBD [1]: 0.1 µg/mL

Structure (SMILES): C=C(C)[C@@H]1CCC(C)=C[C@H]1c1c(O)cc(CCCCC)cc1OC(=O)NCC(=O)[O-].[Na+] [Example 3, Sodium ((((1′R,2′R)-6-hydroxy-5′-methyl-4-pentyl-2′-(prop-1-en-2-yl)-1′,2′,3′,4′-tetrahydro-[1,1′-biphenyl]-2-yl)oxy)carbonyl)glycinate]
- solubility (physchem; [2]): 3140 µg/mL
- solubility (physchem; [3]): 4370 µg/mL

Structure (SMILES): CCCCCc1cc(O)c(C/C=C(\C)CCC=C(C)C)c(OC(=O)NCC(=O)[O-])c1.[Na+] [Example 10, Sodium (E)-((2-(3,7-dimethylocta-2,6-dien-1-yl)-3-hydroxy-5-pentylphenoxy)carbonyl)glycinate]
- solubility (physchem; [2]): 10000 µg/mL
- solubility (physchem; [3]): 13300 µg/mL
